# Experimental data taken from patent publication US20250144067A1, “PERSONALIZED STARVATION THERAPY FOR CANCER” (Faeth Therapeutics, Inc., priority 2021, published 2025).
# Structures can show the parent of a compound that is named as a salt.
# What was measured:
# [1] = test system: NCI-H292 lung cancer cells; experiment: FDA drug screening, complete media vs cholesterol-free media without statin (TABLE 1); type: cell-based, human; conditions: for Difference: about 0 neutral
# [2] = test system: NCI-H292 lung cancer cells; experiment: FDA drug screening, complete media vs cholesterol-free media with simvastatin (TABLE 2); type: cell-based, human; conditions: for Cholesterol-free media + simvastatin (0.04 μM) / Complete Media: NCI-H292 cells; for Difference: >0 enhanced anti-cancer activity, about 0 neutral, <0 antagonist
# [3] = NCI-H292 cells, cholesterol-free media without statin
# [4] = complete vs cholesterol-free media, greater than 0 enhanced anti-cancer activity, below 0 antagonists
# [5] = cholesterol-free media with simvastatin 0.04 μM, cell growth value in FDA drug screen
# [6] = complete media, cell growth value in FDA drug screen
# [7] = complete media minus cholesterol-free media + simvastatin
# [8] = Complete minus Cholesterol-free, greater than 0 enhanced anti-cancer activity, below 0 antagonists
# [9] = NCI-H292 cells in cholesterol-free media without statin
# [10] = NCI-H292 cells in complete media
# [11] = FDA drug library screen, cholesterol-free media with simvastatin 0.04 μM
# [12] = FDA drug library screen, complete media
# [13] = complete media vs cholesterol-free media + simvastatin (0.04 μM)
# [14] = Complete minus Cholesterol-free, >0 enhanced anti-cancer activity, <0 antagonist
# [15] = NCI-H292 cells, cholesterol-free media without statin, FDA drug library screen
# [16] = NCI-H292 cells, complete media, FDA drug library screen
# [17] = cholesterol-free media with simvastatin 0.04 μM, FDA drug library screen (TABLE 2)
# [18] = complete media, FDA drug library screen (TABLE 2)
# [19] = complete media minus cholesterol-free media + simvastatin (0.04 μM)
# [20] = FDA library drug in cholesterol-free media with simvastatin 0.04 μM
# [21] = FDA library drug in complete media
# [22] = Complete minus Cholesterol-free, greater than 0 enhanced anti-cancer activity, below 0 antagonist
# [23] = NCI-H292 cells, FDA drug library screen, cholesterol-free media without statin
# [24] = NCI-H292 cells, FDA drug library screen, complete media
# [25] = drug in cholesterol-free media with simvastatin 0.04 μM
# [26] = complete vs cholesterol-free media, >0 enhanced anti-cancer activity, <0 antagonist
smiles,measurement,setting,value
CN(C)CC(c1ccc(O)cc1)C1(O)CCCCC1 (stereo not drawn) [Desvenlafaxine],Cholesterol-free,[1]; [3],1.158
same,Complete,"[1]; NCI-H292 cells, complete media",0.8309
same,Difference,[1]; [4],−0.33
same,Cholesterol-free media + simvastatin (0.04 μM),[2]; [5],1.047
same,Complete Media,[2]; [6],1.102
same,Difference,[2]; [7],0.05
Cc1cccc(Cc2c[nH]cn2)c1C [Detomidine (hydrochloride)],Difference,[1]; [8],−0.47
same,Cholesterol-free,[1]; [9],1.106
same,Complete,[1]; [10],0.6322
same,Cholesterol-free media + simvastatin (0.04 μM),[2]; [11],1.019
same,Complete Media,[2]; [12],0.9319
same,Difference,[2]; [13],−0.09
CC(=O)OCC(=O)[C@@]1(O)[C@H](C)C[C@H]2[C@@H]3CCC4=CC(=O)C=C[C@]4(C)[C@@]3(F)[C@@H](O)C[C@@]21C [Dexamethasone acetate],Difference,[1]; [14],−0.04
same,Cholesterol-free,[1]; [15],0.6815
same,Complete,[1]; [16],0.6403
same,Cholesterol-free media + simvastatin (0.04 μM),[2]; [11],0.9553
same,Complete Media,[2]; [12],0.8728
same,Difference,[2]; [13],−0.08
C[C@@H]1C[C@H]2[C@@H]3CCC4=CC(=O)C=C[C@]4(C)[C@@]3(F)[C@@H](O)C[C@]2(C)[C@@]1(O)C(=O)COP(=O)([O-])[O-].[Na+].[Na+] [Dexamethasone phosphate disodium],Difference,[1]; [14],−0.02
same,Cholesterol-free,[1]; [15],0.7426
same,Complete,[1]; [16],0.7227
same,Cholesterol-free media + simvastatin (0.04 μM),[2]; [11],0.6625
same,Complete Media,[2]; [12],1.229
same,Difference,[2]; [7],0.57
C[C@@H]1C[C@H]2[C@@H]3CCC4=CC(=O)C=C[C@]4(C)[C@@]3(F)[C@@H](O)C[C@]2(C)[C@@]1(O)C(=O)CO [Dexamethasone],Difference,[1]; [14],0.07
same,Cholesterol-free,[1]; [15],0.7411
same,Complete,[1]; [16],0.8107
same,Cholesterol-free media + simvastatin (0.04 μM),[2]; [11],0.6107
same,Complete Media,[2]; [12],0.7971
same,Difference,[2]; [7],0.19
Cc1cccc([C@H](C)c2cnc[nH]2)c1C [Dexmedetomidine (hydrochloride)],Difference,[1]; [14],−0.05
same,Cholesterol-free,[1]; [15],0.9551
same,Complete,[1]; [16],0.9084
same,Cholesterol-free media + simvastatin (0.04 μM),[2]; [17],1.227
same,Complete Media,[2]; [18],1.157
same,Difference,[2]; [19],−0.07
CCCN[C@@H]1CCc2nc(N)sc2C1 [Dexpramipexole (dihydrochloride)],Cholesterol-free,[1]; [3],0.9915
same,Complete,"[1]; NCI-H292 cells, complete media",0.5799
same,Difference,[1]; [4],−0.41
same,Cholesterol-free media + simvastatin (0.04 μM),[2]; [17],1.099
same,Complete Media,[2]; [18],1.11
same,Difference,[2]; [19],0.01
C[C@@H](CN1CC(=O)NC(=O)C1)N1CC(=O)NC(=O)C1 [Dexrazoxane (hydrochloride)],Difference,[1]; [14],0.03
same,Cholesterol-free,[1]; [15],0.9516
same,Complete,[1]; [16],0.9799
same,Cholesterol-free media + simvastatin (0.04 μM),[2]; [20],1.279
same,Complete Media,[2]; [21],1.002
same,Difference,[2]; [13],−0.28
CC(=O)Oc1cccc2c1C(=O)c1c(OC(C)=O)cc(C(=O)O)cc1C2=O [Diacerein],Difference,[1]; [22],−0.13
same,Cholesterol-free,[1]; [23],1.078
same,Complete,[1]; [24],0.9444
same,Cholesterol-free media + simvastatin (0.04 μM),[2]; [25],1.08
same,Complete Media,[2]; drug in complete media,0.9105
same,Difference,[2]; [13],−0.17
CC(=O)Nc1c(I)c(NC(C)=O)c(I)c(C(=O)O)c1I [Diatrizoic acid],Difference,[1]; [22],−0.07
same,Cholesterol-free,[1]; [23],1.077
same,Complete,[1]; [24],1.004
same,Cholesterol-free media + simvastatin (0.04 μM),[2]; [11],1.834
same,Difference,[2]; [19],−1.00
CC1=NS(=O)(=O)c2cc(Cl)ccc2N1 [Diazoxide],Cholesterol-free,[1]; [3],1.261
same,Complete,"[1]; NCI-H292 cells, complete media",0.9038
same,Difference,[1]; [4],−0.36
same,Cholesterol-free media + simvastatin (0.04 μM),[2]; [5],0.9722
same,Complete Media,[2]; [6],1.066
same,Difference,[2]; [7],0.09
CCCCOc1cc(C(=O)NCCN(CC)CC)c2ccccc2n1 [Dibucaine (hydrochloride)],Difference,[1]; [8],−0.71
same,Cholesterol-free,[1]; [9],1.433
same,Complete,[1]; [10],0.7196
same,Cholesterol-free media + simvastatin (0.04 μM),[2]; [11],0.7966
same,Complete Media,[2]; [12],1.391
same,Difference,[2]; [7],0.59
CCCCOc1cc(C(=O)NCCN(CC)CC)c2ccccc2n1 [Dibucaine],Difference,[1]; [8],−0.63
same,Cholesterol-free,[1]; [9],1.382
same,Complete,[1]; [10],0.749
same,Cholesterol-free media + simvastatin (0.04 μM),[2]; [5],0.8438
same,Complete Media,[2]; [6],0.9323
same,Difference,[2]; [7],0.09
CC(=O)OCC(=O)[C@@]1(O)CC[C@H]2[C@@H]3CCC4=CC(=O)C=C[C@]4(C)[C@@]3(Cl)[C@@H](Cl)C[C@@]21C [Dichlorisone acetate],Cholesterol-free,[1]; [15],0.8532
same,Complete,[1]; [16],1.096
same,Difference,[1]; [26],0.24
same,Cholesterol-free media + simvastatin (0.04 μM),[2]; [17],0.7442
same,Complete Media,[2]; [18],0.6906
same,Difference,[2]; [19],−0.05
NS(=O)(=O)c1cc(Cl)c(Cl)c(S(N)(=O)=O)c1 [Dichlorphenamide],Difference,[1]; [22],−0.08
same,Cholesterol-free,[1]; [23],1.046
same,Complete,[1]; [24],0.9714
same,Cholesterol-free media + simvastatin (0.04 μM),[2]; [17],1.117
same,Complete Media,[2]; [18],1.073
same,Difference,[2]; [19],−0.04
N#CC(c1ccc(Cl)cc1)c1c(Cl)cc(-n2ncc(=O)[nH]c2=O)cc1Cl (stereo not drawn) [Diclazuril],Cholesterol-free,[1]; [15],0.7362
same,Complete,[1]; [16],1.131
same,Difference,[1]; [26],0.39
same,Cholesterol-free media + simvastatin (0.04 μM),[2]; [11],1.052
same,Complete Media,[2]; [12],0.9766
same,Difference,[2]; [13],−0.08
O=C(O)Cc1ccccc1Nc1c(Cl)cccc1Cl [Diclofenac (Sodium)],Difference,[1]; [14],−0.23
same,Cholesterol-free,[1]; [3],1.086
same,Complete,"[1]; NCI-H292 cells, complete media",0.859
same,Cholesterol-free media + simvastatin (0.04 μM),[2]; [20],1.356
same,Complete Media,[2]; [21],0.9075
same,Difference,[2]; [13],−0.45
O=C(O)Cc1ccccc1Nc1c(Cl)cccc1Cl [Diclofenac (diethylamine)],Cholesterol-free,[1]; [15],0.7838
same,Difference,[1]; [26],0.36
same,Cholesterol-free media + simvastatin (0.04 μM),[2]; [17],0.9893
same,Complete Media,[2]; [18],0.9206
same,Difference,[2]; [19],−0.07
O=C(O)Cc1ccccc1Nc1c(Cl)cccc1Cl [Diclofenac (potassium)],Difference,[1]; [14],−0.03
same,Cholesterol-free,[1]; [15],1.133
same,Complete,[1]; [16],1.107
same,Cholesterol-free media + simvastatin (0.04 μM),[2]; [17],1.093
same,Complete Media,[2]; [18],1.041
same,Difference,[2]; [19],−0.05
O=C(O)Cc1ccccc1Nc1c(Cl)cccc1Cl [Diclofenac],Difference,[1]; [14],−0.25
same,Cholesterol-free,[1]; [3],1.167
same,Complete,"[1]; NCI-H292 cells, complete media",0.917
same,Cholesterol-free media + simvastatin (0.04 μM),[2]; [20],1.089
same,Complete Media,[2]; [21],0.821
same,Difference,[2]; [13],−0.27
Cc1onc(-c2c(Cl)cccc2Cl)c1C(=O)N[C@@H]1C(=O)N2[C@@H]1SC(C)(C)[C@@H]2C(=O)O [Dicloxacillin (Sodium hydrate)],Difference,[1]; [14],0.01
same,Cholesterol-free,[1]; [15],0.8462
same,Complete,[1]; [16],0.855
same,Cholesterol-free media + simvastatin (0.04 μM),[2]; [11],1.145
same,Complete Media,[2]; [12],1.008
same,Difference,[2]; [13],−0.14
O=c1oc2ccccc2c(O)c1Cc1c(O)c2ccccc2oc1=O [Dicoumarol],Difference,[1]; [8],−0.93
same,Cholesterol-free,[1]; [9],2.049
same,Complete,[1]; [10],1.114
same,Cholesterol-free media + simvastatin (0.04 μM),[2]; [11],0.8973
same,Complete Media,[2]; [12],1.089
same,Difference,[2]; [7],0.19
CCN(CC)CCOC(=O)C1(C2CCCCC2)CCCCC1 [Dicyclomine (hydrochloride)],Cholesterol-free,[1]; [3],1.211
same,Complete,"[1]; NCI-H292 cells, complete media",0.8491
same,Difference,[1]; [4],−0.36
same,Cholesterol-free media + simvastatin (0.04 μM),[2]; [11],0.9961
same,Complete Media,[2]; [12],0.9187
same,Difference,[2]; [13],−0.08
O=c1[nH]cnc2c1ncn2[C@H]1CC[C@@H](CO)O1 [Didanosine],Difference,[1]; [14],−0.23
same,Cholesterol-free,[1]; [3],0.9969
same,Complete,"[1]; NCI-H292 cells, complete media",0.7675
same,Cholesterol-free media + simvastatin (0.04 μM),[2]; [11],0.9758
same,Complete Media,[2]; [12],0.8636
same,Difference,[2]; [13],−0.11
C/C=C(/C(=C/C)c1ccc(O)cc1)c1ccc(O)cc1 [Dienestrol],Cholesterol-free,[1]; [15],0.6505
same,Complete,[1]; [16],1.078
same,Difference,[1]; [26],0.43
same,Cholesterol-free media + simvastatin (0.04 μM),[2]; [5],0.8618
same,Complete Media,[2]; [6],0.9909
same,Difference,[2]; [7],0.13
C[C@]12CCC3=C4CCC(=O)C=C4CC[C@H]3[C@@H]1CC[C@@]2(O)CC#N [Dienogest],Cholesterol-free,[1]; [3],1.387
same,Complete,"[1]; NCI-H292 cells, complete media",1.069
same,Difference,[1]; [4],−0.32
same,Cholesterol-free media + simvastatin (0.04 μM),[2]; [25],0.9182
same,Complete Media,[2]; drug in complete media,0.7086
same,Difference,[2]; [13],−0.21
CC/C(=C(/CC)c1ccc(O)cc1)c1ccc(O)cc1 [Diethylstilbestrol],Cholesterol-free,[1]; [15],0.5644
same,Complete,[1]; [16],0.9798
same,Difference,[1]; [26],0.42
same,Cholesterol-free media + simvastatin (0.04 μM),[2]; [5],0.993
same,Complete Media,[2]; [6],1.095
same,Difference,[2]; [7],0.10
CCN(CC)C(=O)c1cccc(C)c1 [Diethyltoluamide],Difference,[1]; [22],−0.08
same,Cholesterol-free,[1]; [23],1.096
same,Complete,[1]; [24],1.015
same,Cholesterol-free media + simvastatin (0.04 μM),[2]; [25],1.302
same,Complete Media,[2]; drug in complete media,1.098
same,Difference,[2]; [13],−0.20
CC(=O)OCC(=O)[C@@]1(OC(C)=O)[C@@H](C)C[C@H]2[C@@H]3C[C@H](F)C4=CC(=O)C=C[C@]4(C)[C@@]3(F)[C@@H](O)C[C@@]21C [Diflorasone],Difference,[1]; [22],−0.10
same,Cholesterol-free,[1]; [23],0.7536
same,Complete,[1]; [24],0.6518
same,Cholesterol-free media + simvastatin (0.04 μM),[2]; [11],0.8775
same,Difference,[2]; [7],0.30
